# “And” between values parts separate entries of the source, which are not always exact repeats. Identical values can stand only once.
# How the values were obtained:
# [1] = biological target: Glycogen synthase kinase-3 alpha (Homo sapiens, UniProt P49840); assay: TR-FRET Assay
# Method in brief: (§1)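 Compound was preincubated 30 min in assay buffer before the kinase reaction, which was quenched with EDTA. Phosphorylation was detected by TR-FRET after adding a solution of 40 nM streptavidin-d2 and 2 nM Tb-labelled anti-pSer641 antibody.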
# [2] = biological target: Glycogen synthase kinase-3 beta (Homo sapiens, UniProt P49841); assay: TR-FRET Assay
# Method in brief: as §1
# Sequence of Glycogen synthase kinase-3 beta (P49841 whole entry): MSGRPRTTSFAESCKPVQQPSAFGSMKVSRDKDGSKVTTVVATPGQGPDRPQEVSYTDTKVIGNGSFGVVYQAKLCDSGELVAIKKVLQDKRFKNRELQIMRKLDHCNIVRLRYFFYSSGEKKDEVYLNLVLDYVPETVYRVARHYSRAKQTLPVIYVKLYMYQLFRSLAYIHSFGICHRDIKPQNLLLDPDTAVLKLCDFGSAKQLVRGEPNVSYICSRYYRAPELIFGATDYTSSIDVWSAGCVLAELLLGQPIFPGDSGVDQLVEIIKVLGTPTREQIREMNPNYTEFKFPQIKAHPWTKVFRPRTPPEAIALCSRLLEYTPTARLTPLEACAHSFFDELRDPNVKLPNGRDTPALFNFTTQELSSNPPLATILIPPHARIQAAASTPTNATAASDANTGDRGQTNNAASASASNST
# Sequence of Glycogen synthase kinase-3 alpha (P49840 whole entry): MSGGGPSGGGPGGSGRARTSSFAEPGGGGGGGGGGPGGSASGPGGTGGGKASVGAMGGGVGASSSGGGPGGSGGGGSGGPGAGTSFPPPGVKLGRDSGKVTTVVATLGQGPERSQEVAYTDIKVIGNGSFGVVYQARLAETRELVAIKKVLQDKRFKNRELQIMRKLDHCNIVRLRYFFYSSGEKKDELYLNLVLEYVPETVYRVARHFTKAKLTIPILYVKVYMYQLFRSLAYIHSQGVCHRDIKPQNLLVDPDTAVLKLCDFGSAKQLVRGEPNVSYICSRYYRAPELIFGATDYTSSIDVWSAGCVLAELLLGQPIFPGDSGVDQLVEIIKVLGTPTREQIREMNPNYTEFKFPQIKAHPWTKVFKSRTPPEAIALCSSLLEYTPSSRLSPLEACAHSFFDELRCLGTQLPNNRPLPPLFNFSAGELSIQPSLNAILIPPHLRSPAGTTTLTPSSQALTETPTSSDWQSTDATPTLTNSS
SMILES,IC50 [1],IC50 [2]
"CC[C@@]1(c2cccc(-c3c(C)ccc4c(C)cccc34)c2)C2=C(CC(C)(C)NC2=O)NC2N=NC(F)=C21 (some centres not stated) [US20250313563, Compound 949392]",1000 to 5000 nM,> 5000 nM
"CC[C@]1(c2cccc(-c3ccnn3C)c2)C2=CN=NC2NC2=C1C(=O)NC1(CCS(=O)(=O)CC1)C2 (some centres not stated) [US20250313563, Compound 949400]",1000 to 5000 nM,> 5000 nM
"CCc1cccc([C@@]2(CC)C3=CN=NC3NC3=C2C(=O)CC(C)(C)C3)c1 (some centres not stated) [US20250313563, Compound 949401]",< 100 nM and 100 to 1000 nM,< 100 nM and 1000 to 5000 nM
"CC[C@]1(c2cccc(-c3ccnc(C)c3)c2)C2=C(CC(C)(C)NC2=O)NC2N=NC(Cl)=C21 (some centres not stated) [US20250313563, Compound 949421]",100 to 1000 nM,> 5000 nM
"CC[C@@]1(c2cccc(-c3ccnc(C)c3)c2)C2=C(CC(C)(C)NC2=O)NC2N=NC(Cl)=C21 (some centres not stated) [US20250313563, Compound 949422]",< 100 nM and 100 to 1000 nM,< 100 nM and 1000 to 5000 nM
"CC[C@]1(c2cccc(-c3cc(C4CCCC4)nn3C)c2)C2=CN=NC2NC2=C1C(=O)NC(C)(C)C2 (some centres not stated) [US20250313563, Compound 949509]",> 5000 nM,> 5000 nM
"CC[C@]1(c2cccc(-c3cnn(Cc4cccc(C(F)(F)F)c4)c3)c2)C2=CN=NC2NC2=C1C(=O)NC(C)(C)C2 (some centres not stated) [US20250313563, Compound 949513]",> 5000 nM,> 5000 nM
"CC[C@]1(c2cccc(-c3cnn(-c4cccnc4)c3)c2)C2=CN=NC2NC2=C1C(=O)NC(C)(C)C2 (some centres not stated) [US20250313563, Compound 949515]",> 5000 nM,> 5000 nM
"CC[C@]1(c2cccc(-c3ccncc3C(F)(F)F)c2)C2=CN=NC2NC2=C1C(=O)NC(C)(C)C2 (some centres not stated) [US20250313563, Compound 949516]",1000 to 5000 nM,> 5000 nM
"CC[C@]1(c2cccc(-c3ccnn3C3CC3(F)F)c2)C2=CN=NC2NC2=C1C(=O)NC(C)(C)C2 (some centres not stated) [US20250313563, Compound 949518]",100 to 1000 nM,> 5000 nM
"CC[C@@]1(c2cccc(-c3ccnc(C)c3)c2)C2=CN=NC2NC2=C1C(=O)NC1(CCC1)C2 (some centres not stated) [US20250313563, Compound 949520]",< 100 nM,100 to 1000 nM
"CC[C@]1(c2cccc(-c3cc(C)ncc3OC)c2)C2=CN=NC2NC2=C1C(=O)NC(C)(C)C2 (some centres not stated) [US20250313563, Compound 949522]",< 100 nM,100 to 1000 nM
"CC[C@]1(c2cccc(C(F)(F)F)c2)C2=CN=NC2NC2=C1C(=O)N(CCOC)CC2 (some centres not stated) [US20250313563, Compound 949599]",100 to 1000 nM,100 to 1000 nM
"CC[C@@]1(c2cccc(C(F)(F)F)c2)C2=CN=NC2NC2=C1C(=O)N(CCOC)CC2 (some centres not stated) [US20250313563, Compound 949600]",> 5000 nM,> 5000 nM
"CCC1(c2cccc(C(F)(F)F)c2)C2=C(N=NC2)NC2=C1C(=O)CC2 (configuration not stated) [US20250313563, Compound 949639]",100 to 1000 nM,100 to 1000 nM

# Further lines, results first:
IC50 [1],IC50 [2],SMILES
< 100 nM,100 to 1000 nM,"CC[C@@]1(c2cccc(-c3ccnn3C)c2)C2=CN=NC2NC2=C1C(=O)NC1(CCS(=O)(=O)CC1)C2 (some centres not stated) [US20250313563, Compound 949394]"
> 5000 nM,> 5000 nM,"CC[C@]1(c2cccc(-c3ccnn3-c3ccc(F)cc3)c2)C2=CN=NC2NC2=C1C(=O)NC(C)(C)C2 (some centres not stated) [US20250313563, Compound 949396]"
< 100 nM and 100 to 1000 nM,< 100 nM and 1000 to 5000 nM,"CC[C@]1(c2cccc(C3CCCC3)c2)C2=CN=NC2NC2=C1C(=O)CC(C)(C)C2 (some centres not stated) [US20250313563, Compound 949397]"
1000 to 5000 nM,> 5000 nM,"CC[C@@]1(c2cccc(C3CCCC3)c2)C2=CN=NC2NC2=C1C(=O)CC(C)(C)C2 (some centres not stated) [US20250313563, Compound 949399]"
< 100 nM,< 100 nM,"CCC1(c2cccc(N(C)c3ncccn3)c2)C2=C(CC(C)(C)NC2=O)NC2N=NC(Cl)=C21 (configuration not stated) [US20250313563, Compound 949417]"
> 5000 nM,> 5000 nM,"CC[C@]1(c2cccc(-c3cnn(CCN4CCCC4)c3)c2)C2=CN=NC2NC2=C1C(=O)NC(C)(C)C2 (some centres not stated) [US20250313563, Compound 949510]"
> 5000 nM,> 5000 nM,"CC[C@]1(c2cccc(-c3cnn(Cc4ccc(C(F)(F)F)cc4)c3)c2)C2=CN=NC2NC2=C1C(=O)NC(C)(C)C2 (some centres not stated) [US20250313563, Compound 949511]"
1000 to 5000 nM,> 5000 nM,"CC[C@@]1(c2cccc(-c3cc(C)ncc3OC)c2)C2=CN=NC2NC2=C1C(=O)NC(C)(C)C2 (some centres not stated) [US20250313563, Compound 949512]"
1000 to 5000 nM,> 5000 nM,"CC[C@]1(c2cccc(-c3ccnc(C)c3)c2)C2=CN=NC2NC2=C1C(=O)NC1(CCC1)C2 (some centres not stated) [US20250313563, Compound 949517]"
> 5000 nM,> 5000 nM,"CC[C@]1(c2cccc(-c3cnn(-c4ccccc4)c3F)c2)C2=CN=NC2NC2=C1C(=O)NC(C)(C)C2 (some centres not stated) [US20250313563, Compound 949519]"
< 100 nM and 100 to 1000 nM,< 100 nM and 1000 to 5000 nM,"CC[C@]1(c2cccc(C3CCC3)c2)C2=CN=NC2NC2=C1C(=O)CC(C)(C)C2 (some centres not stated) [US20250313563, Compound 949521]"
